Measured values as given in ChEMBL document CHEMBL3352285, “In vitro anti-inflammatory effects of diterpenoids and sesquiterpenoids from traditional Chinese medicine Siegesbeckia pubescens” (Bioorg Med Chem Lett, 2014).
≈ marks a conversion by molar mass, not a printed value.

Columns and labels:
[1] = system: Neutrophil; experiment: Inhibition of FMLP/CB-induced superoxide anion generation in human neutrophils by ferricytochrome c reduction method; format: functional, cell-based
[2] = system: Neutrophil; experiment: Inhibition of FMLP/CB-induced superoxide anion generation in human neutrophils at 10 ug/ml by ferricytochrome c reduction method; format: functional
[3] = system: Neutrophil; experiment: Inhibition of FMLP/CB-induced elastase release in human neutrophils after 5 mins by spectrophotometry; format: functional, cell-based
[4] = Cytotoxicity against human neutrophils at 10 ug/ml after 15 mins by LDH release assay; format: cell-based; conditions: neutrophil, 0.25 h
[5] = system: Neutrophil; experiment: Inhibition of FMLP/CB-induced elastase release in human neutrophils at 10 ug/ml after 5 mins by spectrophotometry; format: functional
[6] = system: RAW264.7; experiment: Inhibition of NO production in LPS/IFN-gamma activated mouse RAW264.7 cells after 24 hrs by Griess assay; format: functional, cell-based
[7] = Mus musculus, RAW264.7, 24 h, read-out: IC50

Row | SMILES | IC50 [1] [µg/mL] | IC50 [3] [µg/mL] | IC50 ([6]; raw264.7) | IC50 [6, 7] [µM] | inhibition at 10 µg/mL [2] [%] | Activity [4] | inhibition at 10 µg/mL [5] [%]
1 | CC1=CC(=O)CC(C)(C)[C@@]1(O)/C=C/C(C)O (stereo partly drawn) | > 10 | > 10 | Not Active | – | 3.57 | – | 3.42
2 | CC1(C)C[C@H]2[C@H]1CC[C@@]1(C)C[C@]2(O)CC[C@@H]1O | > 10 | > 10 | Not Active | – | 10.2 | – | 5.93
3 | CC1(C)[C@H](O)CC[C@@]2(C)[C@@H]3CC[C@](C)(C(O)CO)C=C3CC[C@H]12 (stereo partly drawn) | > 10 | > 10 | – | – | 35.8 | – | 21.9
4 | C[C@]1(CO)[C@H]2CCC3=C[C@@](C)(C(O)CO)CC[C@H]3[C@]2(C)CC[C@H]1O (stereo partly drawn) | > 10 | > 10 | – | – | 17.8 | – | -0.74
5 | C[C@@]1(CO)C[C@@H](O)C[C@@]2(C)[C@@H]3CC[C@](C)(C(O)CO)C=C3CC[C@H]12 (stereo partly drawn) | > 10 | > 10 | – | – | 7.88 | – | 6.78
6 | CC1(C)[C@H]2CCC3=C[C@@](C)(C(O)CO)CC[C@H]3[C@]2(C)CC[C@H]1O[C@@H]1O[C@H](CO)[C@@H](O)[C@H](O)[C@H]1O (stereo partly drawn) | > 10 | > 10 | – | – | 5.86 | – | 5.93
7 | CC(=O)OCC(O)[C@]1(C)C=C2CC[C@@H]3C(C)(C)[C@H](O[C@@H]4O[C@H](CO)[C@@H](O)[C@H](O)[C@H]4O)CC[C@@]3(C)[C@@H]2CC1 (stereo partly drawn) | > 10 | > 10 | – | – | 8.87 | – | 4.44
8 | CC(=O)OC[C@@]1(C(=O)O)CCC[C@@]2(C)[C@@H]3CC[C@H]4C[C@@]3(CC[C@H]12)C[C@@]4(O)COC(=O)C(C)C | > 10 | 6.82 (≈ 14.7 µM) | – | – | 46.7 | Non-toxic | 60.4
9 | C[C@@]12CCC[C@@](C)(C(=O)O)[C@H]1CC[C@@]13C[C@H](CC[C@H]12)[C@@](O)(CO)C3 | 3.63 (≈ 10.8 µM) | 4.34 (≈ 12.9 µM) | – | – | 89.2 | Non-toxic | 70.8
10 | O=c1cc(N2CCOCC2)oc2c(-c3ccccc3)cccc12 [LY-294002] | 0.4 (≈ 1.3 µM) | 0.92 (≈ 2.99 µM) | – | – | – | – | –

More lines, main results first:

Row | IC50 [1] [µg/mL] | IC50 [3] [µg/mL] | IC50 ([6]; raw264.7) | IC50 [6, 7] [µM] | SMILES | inhibition at 10 µg/mL [2] [%] | Activity [4] | inhibition at 10 µg/mL [5] [%]
11 | 5.22 (≈ 15.6 µM) | > 10 | – | – | COC(=O)[C@]1(C)CCC[C@@]2(C)[C@@H]3CC[C@@H]4C[C@@]3(CC[C@@H]21)C[C@@H]4CO | 90.7 | Toxic | 27.7
12 | > 10 | > 10 | – | 6.4 | C=C1C(=O)O[C@@H]2C[C@]3(C)[C@@H](CCC(C)=O)[C@@H]3C[C@H]12 | 41.2 | – | 11.2
13 | > 10 | > 10 | – | 18.9 | C=C1C(=O)O[C@@H]2C[C@]3(C)[C@@H](CCC(C)O)[C@@H]3C[C@H]12 (stereo partly drawn) | 11.6 | – | 39
14 | > 10 | > 10 | Not Active | – | C=C(C)C(=O)O[C@H]1[C@H]2C(=C)C(=O)O[C@@H]2/C=C(\CO)CC/C=C(/C=O)[C@H]1O | 9.01 | – | 20.8
15 | 6.46 (≈ 16.5 µM) | > 10 | – | 6.8 | C=C(C)C(=O)O[C@H]1[C@H]2C(=C)C(=O)O[C@@H]2/C=C(\CO)CC/C=C(/C=O)[C@H]1OCC | 72.4 | Non-toxic | 22.3
16 | > 10 | > 10 | – | – | C[C@@]1(CO)CC(=O)C[C@@]2(C)[C@@H]3CC[C@](C)(C(O)CO)C=C3CC[C@H]12 (stereo partly drawn) | 10.2 | – | -0.75
17 | > 10 | > 10 | – | – | C[C@@]12C[C@H](O)C[C@@](C)(C(=O)O)[C@H]1CCC1=C[C@@](C)(C(O)CO)CC[C@H]12 (stereo partly drawn) | 5.18 | – | 7.65
18 | > 10 | > 10 | – | – | CC1(C)OCC([C@]2(C)C=C3CC[C@@H]4[C@](C)(CO)C[C@@H](O)C[C@@]4(C)[C@@H]3CC2)O1 (stereo partly drawn) | 38.4 | – | 21.8
19 | 3.72 (≈ 11.6 µM) | > 10 | – | – | C[C@@]12CCC[C@@](C)(C(=O)O)[C@H]1CC[C@]13C[C@H](CO)[C@@H](CC[C@H]12)C3 | 89.5 | Non-toxic | 45.9
20 | > 10 | > 10 | – | – | C[C@@]12CCC[C@@](CO)(C(=O)O)[C@H]1CC[C@]13C[C@@H](CO)[C@@H](CC[C@H]12)C3 | 7.81 | – | 15.7
21 | 5.59 (≈ 16.7 µM) | > 10 | – | – | C[C@@]12CCC[C@@](C)(C(=O)O)[C@H]1CC[C@@]13C[C@H](CC[C@H]12)[C@H](C(=O)O)C3 | 69.6 | Non-toxic | 31.5
22 | 6.74 (≈ 16.6 µM) | 4.73 (≈ 11.6 µM) | – | – | CC(C)C(=O)OC[C@@H]1C[C@@]23CC[C@@H]4[C@](CO)(C(=O)O)CCC[C@@]4(C)[C@@H]2CC[C@H]1C3 | 67 | Non-toxic | 83.2
23 | > 10 | 3.64 (≈ 8.11 µM) | – | – | CC(=O)OC[C@@]1(C(=O)O)CCC[C@@]2(C)[C@@H]3CC[C@H]4C[C@@]3(CC[C@H]12)C[C@H]4COC(=O)C(C)C | 35.2 | Non-toxic | 77.8
24 | > 10 | > 10 | – | – | CC(=O)OC[C@@]1(C(=O)O)CCC[C@@]2(C)[C@@H]3CC[C@H]4C[C@@]3(CC[C@H]12)C[C@@]4(O)CO | 32.1 | – | 37
25 | > 10 | > 10 | – | 14.9 | C=C1C(=O)O[C@H]2C[C@@H](C)[C@@H]3CC[C@H](O)[C@@]3(C)C[C@H]12 [PSEUDOGUAIANOLIDE] | 17 | – | 46.9
